Experimental data: paper PMC11571207, “Stereorandomized Oncocins with Preserved Ribosome Binding and Antibacterial Activity” (Journal of Medicinal Chemistry, 2024)
Read-outs that look alike come from different tables or passages of the source. No end group written: not given here.

How the values were obtained:
E. cloacae = assay: microbe, parasite or virus in culture; details: for MIC: Enterobacter cloacae; for MIC E. cloacae: supplement CSV
Description: (§1) Minimum inhibitory concentration assay
(§2) Antimicrobial activity was assayed against P. aeruginosa PAO1, K. pneumoniae NCTC418, E. coli W3110, A. baumannii ATCC 19606, methicillin-resistant S. aureus COL (MRSA), and for selected peptides on P. aeruginosa PA14 and the polymyxin-B-resistant derivative PA14 2P4, as well as the clinical isolates ZEM-1A and ZEM9A, K. pneumoniae OXA-48, S. aureus Newman, Enterobacter cloacae and Burkholderia cenocepacia. The minimal inhibitory concentration (MIC) was determined by using broth microdilution method. A colo ny of bacteria was picked and grown in Luria-Bertani (LB) medium overnight at 37°C. For E. coli BW25113 sbmA::kan the medium was supplemented with 25 mg/L of kanamycin. The next day, the culture was then regrown in LB medium to log phase (OD600 = 0.6 to 0.8), which lasted approximately 4 h, and diluted to an OD600 of 0.022 in the desired medium. Stock solutions of 1 mg/mL of the samples were prepared in sterilized milliQ water and diluted to the beginning concentration of 64 μg/mL in 300 μL Mueller Hinton (MH)-medium. The diluted samples were added to first well of 96-well microtiter plate (TPP, untreated, Faust Laborbedarf, AG, Schaffhausen) and diluted serially by ½. Finally, 4 μL of the bacterial suspension was inoculated into the sample solutions (150 μL/well) with a final inoculation of about 5∙10^5 CFU/mL. The plates were then incubated at 37°C for 15-18h. For each assay, sterility (broth only) and growth control (broth with bacterial inoculum, without antibiotics) were checked with two columns in the plate. The next day, 15 μL of 3-(4,5-dimethylthiazol-2-yl)-2,5-diphenyltetrazolium bromide (MTT) was added to each well of the plate, such a way that MIC was defined as the lowest concentration of the peptide that inhibited visible growth of the tested

K. pneumoniae OXA-48 = assay: microbe, parasite or virus in culture; details: for MIC: Klebsiella pneumoniae; for MIC K. pneumoniae OXA-48: supplement CSV
Description: as §1, §2

[1] = tested on: P. aeruginosa PA14 2P4 (pmrB); assay: microbe, parasite or virus in culture; details: for MIC: Pseudomonas aeruginosa; for MIC P. aeruginosa PA14 2P4: supplement CSV
Description: as §1, §2

P. aeruginosa PA14 = assay: microbe, parasite or virus in culture; details: for MIC: Pseudomonas aeruginosa; for MIC P. aeruginosa PA14: supplement CSV
Description: as §1, §2

P. aeruginosa ZEM-1A = assay: microbe, parasite or virus in culture; details: for MIC: Pseudomonas aeruginosa, ZEM1A
Description: as §1, §2

P. aeruginosa ZEM9A = assay: microbe, parasite or virus in culture; details: for MIC: Pseudomonas aeruginosa, ZEM9A; for MIC P. aeruginosa ZEM9A: supplement CSV
Description: as §1, §2

[2] = tested on: P. aeruginosa PA14 4.18 (pmrB); details: for MIC P. aeruginosa PA14 4.18: supplement CSV
[3] = tested on: P. aeruginosa PA14 4.13 (phoQ); details: for MIC P. aeruginosa PA14 4.13: supplement CSV
human red blood cells = assay: Hemolysis assay, minimum hemolytic concentration
[4] = polymyxin B resistant strain, 12.5% MHB pH 7.4, 16–20 h at 37 °C
[5] = polymyxin B resistant strain, full MHB pH 7.4, 16–20 h at 37 °C

CC[C@H]1OC(=O)[C@H](C)[C@@H](O[C@H]2C[C@@](C)(OC)[C@@H](O)[C@H](C)O2)[C@H](C)[C@@H](O[C@@H]2O[C@H](C)C[C@H](N(C)C)[C@H]2O)[C@](C)(O)C[C@@H](C)CN(C)[C@H](C)[C@@H](O)[C@]1(C)O [AZM, azithromycin, reference compound]
16 µg/mL: MIC (E. cloacae; pH 7.4, read-out: MIC E. cloacae, full MHB, full MHB pH 7.4, 16–20 h at 37 °C) | MIC (E. cloacae; pH 7.4, read-out: MIC E. cloacae, supplement CSV, full MH pH 7.4) | MIC ([1]; PA14, pH 7.4, read-out: MIC P. aeruginosa PA14 2P4 (pmrB), 12.5% MHB, polymyxin B resistant strain, 12.5% MHB pH 7.4, 16–20 h at 37 °C) | MIC ([1]; PA14, pH 7.4, read-out: MIC P. aeruginosa PA14 2P4, supplement CSV, 12.5% MH pH 7.4)
8 µg/mL: MIC (E. cloacae; pH 7.4, read-out: MIC E. cloacae, 12.5% MHB, 12.5% MHB pH 7.4, 16–20 h at 37 °C) | MIC (E. cloacae; pH 7.4, read-out: MIC E. cloacae, supplement CSV, 12.5% MH pH 7.4) | MIC (K. pneumoniae OXA-48; OXA48, pH 7.4, read-out: MIC K. pneumoniae OXA-48, 12.5% MHB, carbapenem-resistant, 12.5% MHB pH 7.4, 16–20 h at 37 °C) | MIC (K. pneumoniae OXA-48; OXA48, pH 7.4, read-out: MIC K. pneumoniae OXA-48, supplement CSV, 12.5% MH pH 7.4)
< 0.5 µg/mL: MIC (P. aeruginosa ZEM-1A; pH 7.4, read-out: MIC P. aeruginosa ZEM-1A, 12.5% MHB, clinical isolate, 12.5% MHB pH 7.4, 16–20 h at 37 °C, cells marked c: single measurement (in duplicates)) | MIC (P. aeruginosa ZEM-1A; pH 7.4, read-out: MIC P. aeruginosa ZEM-1A, supplement CSV, 12.5% MH pH 7.4)
32 to 64 µg/mL: MIC ([1]; PA14, pH 7.4, read-out: MIC P. aeruginosa PA14 2P4 (pmrB), full MHB, polymyxin B resistant strain, full MHB pH 7.4, 16–20 h at 37 °C) | MIC ([1]; PA14, pH 7.4, read-out: MIC P. aeruginosa PA14 2P4, supplement CSV, full MH pH 7.4) | MIC (P. aeruginosa ZEM9A; pH 7.4, read-out: MIC P. aeruginosa ZEM9A, 12.5% MHB, clinical isolate, 12.5% MHB pH 7.4, 16–20 h at 37 °C) | MIC (P. aeruginosa ZEM9A; pH 7.4, read-out: MIC P. aeruginosa ZEM9A, supplement CSV, 12.5% MH pH 7.4)
8 to 16 µg/mL: MIC (K. pneumoniae OXA-48; OXA48, pH 7.4, read-out: MIC K. pneumoniae OXA-48, full MHB, carbapenem-resistant, full MHB pH 7.4, 16–20 h at 37 °C) | MIC (K. pneumoniae OXA-48; OXA48, pH 7.4, read-out: MIC K. pneumoniae OXA-48, supplement CSV, full MH pH 7.4)
64 µg/mL: MIC (P. aeruginosa ZEM-1A; pH 7.4, read-out: MIC P. aeruginosa ZEM-1A, full MHB, clinical isolate, full MHB pH 7.4, 16–20 h at 37 °C, cells marked c: single measurement (in duplicates)) | MIC (P. aeruginosa ZEM-1A; pH 7.4, read-out: MIC P. aeruginosa ZEM-1A, supplement CSV, full MH pH 7.4)
32 µg/mL: MIC (P. aeruginosa PA14; PA14, pH 7.4, read-out: MIC P. aeruginosa PA14) | MIC (P. aeruginosa PA14; PA14, pH 7.4, read-out: MIC P. aeruginosa PA14, 12.5% MHB) | MIC (P. aeruginosa PA14; PA14, pH 7.4, read-out: MIC P. aeruginosa PA14, full MHB) | MIC P. aeruginosa PA14 (P. aeruginosa PA14; full MH pH 7.4) | MIC P. aeruginosa PA14 4.18 ([2]; full MH pH 7.4)
> 64 µg/mL: MIC (P. aeruginosa ZEM9A; pH 7.4, read-out: MIC P. aeruginosa ZEM9A, full MHB, clinical isolate, full MHB pH 7.4, 16–20 h at 37 °C) | MIC (P. aeruginosa ZEM9A; pH 7.4, read-out: MIC P. aeruginosa ZEM9A, supplement CSV, full MH pH 7.4)

VDKPPYLPRPRPPRRIYNR [sr5Cterm-Onc] (VDKPPYLPRPRPPRRIYNR-NH2; also: residues 15-19 stereorandomized (1:1 L/D mixture))
>1000 µg/mL: Haemolysis on hRBC, MHC (human red blood cells; 2.5% human red blood cells (final) in 10 mM phosphate, 150 mM NaCl, pH 7.4, 25 °C, 4 h, visual inspection) | MHC human red blood cells (human red blood cells; supplement CSV)
8 µg/mL: MIC P. aeruginosa PA14, 12.5% MHB (P. aeruginosa PA14; 12.5% MHB pH 7.4, 16–20 h at 37 °C, two different duplicate MIC determinations) | MIC P. aeruginosa PA14 (P. aeruginosa PA14; 12.5% MH pH 7.4) | MIC P. aeruginosa ZEM9A, 12.5% MHB (P. aeruginosa ZEM9A; clinical isolate, 12.5% MHB pH 7.4, 16–20 h at 37 °C) | MIC P. aeruginosa ZEM9A (P. aeruginosa ZEM9A; 12.5% MH pH 7.4) | MIC P. aeruginosa PA14 4.13 (phoQ), 12.5% MHB [3, 4] | MIC P. aeruginosa PA14 4.13 ([3]; 12.5% MH pH 7.4) | MIC P. aeruginosa PA14 4.18 (pmrB), 12.5% MHB [2, 4] | MIC P. aeruginosa PA14 4.18 ([2]; 12.5% MH pH 7.4)
>64 µg/mL: MIC P. aeruginosa PA14 2P4 ([1]; full MH pH 7.4) | MIC P. aeruginosa PA14 (P. aeruginosa PA14; full MH pH 7.4) | MIC P. aeruginosa ZEM9A (P. aeruginosa ZEM9A; full MH pH 7.4)
> 64 µg/mL: MIC P. aeruginosa PA14 2P4 (pmrB), full MHB [1, 5] | MIC P. aeruginosa PA14, full MHB (P. aeruginosa PA14; full MHB pH 7.4, 16–20 h at 37 °C, two different duplicate MIC determinations) | MIC P. aeruginosa ZEM9A, full MHB (P. aeruginosa ZEM9A; clinical isolate, full MHB pH 7.4, 16–20 h at 37 °C)
4 µg/mL: MIC K. pneumoniae OXA-48, 12.5% MHB (K. pneumoniae OXA-48; carbapenem-resistant, 12.5% MHB pH 7.4, 16–20 h at 37 °C) | MIC K. pneumoniae OXA-48 (K. pneumoniae OXA-48; 12.5% MH pH 7.4)
64 µg/mL: MIC P. aeruginosa ZEM-1A, full MHB (P. aeruginosa ZEM-1A; clinical isolate, full MHB pH 7.4, 16–20 h at 37 °C, cells marked c: single measurement (in duplicates)) | MIC P. aeruginosa PA14 4.13 (phoQ), full MHB [3, 5] | MIC P. aeruginosa PA14 4.13 ([3]; full MH pH 7.4) | MIC P. aeruginosa PA14 4.18 (pmrB), full MHB [2, 5] | MIC P. aeruginosa PA14 4.18 ([2]; full MH pH 7.4)
1 µg/mL: MIC E. cloacae, 12.5% MHB (E. cloacae; 12.5% MHB pH 7.4, 16–20 h at 37 °C) | MIC E. cloacae (E. cloacae; 12.5% MH pH 7.4)
32 µg/mL: MIC E. cloacae, full MHB (E. cloacae; full MHB pH 7.4, 16–20 h at 37 °C) | MIC E. cloacae (E. cloacae; full MH pH 7.4) | MIC K. pneumoniae OXA-48, full MHB (K. pneumoniae OXA-48; carbapenem-resistant, full MHB pH 7.4, 16–20 h at 37 °C) | MIC K. pneumoniae OXA-48 (K. pneumoniae OXA-48; full MH pH 7.4)
2 µg/mL: MIC P. aeruginosa PA14 2P4 (pmrB), 12.5% MHB [1, 4] | MIC P. aeruginosa PA14 2P4 ([1]; 12.5% MH pH 7.4)
4 to 8 µg/mL: MIC P. aeruginosa ZEM-1A, 12.5% MHB (P. aeruginosa ZEM-1A; clinical isolate, 12.5% MHB pH 7.4, 16–20 h at 37 °C, cells marked c: single measurement (in duplicates)) | MIC P. aeruginosa ZEM-1A (P. aeruginosa ZEM-1A; supplement CSV, 12.5% MH pH 7.4)
